Test results: patent US20230292758A1, “COMPOSITIONS AND METHODS FOR CONTROLLLING FUNGAL DISEASES IN PLANTS” (priority 2020, published 2023)

How the values were obtained:
[1] = Relative lipopeptide levels in supernatants by LC-MS; assay type: physicochemical; conditions: Example 4
Method: Bacillus subtilis QST713 WB and Bacillus subtilis QST713 BC were prepared as described in the previous examples. […] Combinations of Bacillus subtilis QST713 BC with 3% (w/w) ANS or 5% (w/w) ANS were also prepared. […] To determine relative amounts of lipopeptides in the combinations samples were centrifuged to obtain the supernatant layer relatively free of spores. It was then filtered and separated on an analytical HPLC column and detected with a mass spectrometer (i.e., via LC-MS).
Peaks containing lipopeptides were identified by analysis of mass to charge (m/z) ratios. For example, “Iturin_1043_B” corresponds with an iturin peak in which the predominant m/z ratio detected by the mass spectrometer was 1043 corresponding with the molecular formula of C48H74N12O14. Relative quantification was performed by comparing the peak areas in the samples to those in an extract of a Bacillus subtilis QST713 WB used across different experiments as a reference standard.
For purposes of comparison, an aliquot of the Bacillus subtilis QST713 WB that was present in the ANS combinations was also analyzed for relative lipopeptides levels. The Bacillus subtilis QST713 WB (the “Extracted” sample in FIG. 2) and a supernatant of the Bacillus subtilis QST713 WB removed after centrifugation (the “Supernatant” sample in FIG. 2) were analyzed via LC-MS. […]

Botrytis cinerea = Botrytis cinerea disease control assay on treated plants inoculated with spore suspension; assay type: in vivo; conditions: Example 1; bell pepper plants
Method: Subsequently, the plants were inoculated with a spore suspension of Botrytis cinerea. Several days later when disease was evident in the untreated control plants the plants were evaluated for percent disease control. The results shown in Table 1 are the average values of four independent measurements. A relatively high disease pressure affecting 100% of plants in the untreated control group was present. Percent disease control was scored with 0% indicating no difference in disease from the untreated control plants and 100% indicating no observable disease in the plants. […]
Bacillus subtilis QST713 WB and BC were prepared as described in the previous examples. […] Subsequently, the plants were inoculated with a spore suspension of Botrytis cinerea and scored for percent disease control when disease was evident in 100% of the untreated control plants. […]
Bacillus subtilis QST713 WB was prepared as described in the previous examples. […] Four replicate measurements of disease control were evaluated for each treatment, and the average values are presented in the plot shown in FIG. 4.
Each of the combinations was also evaluated for antifungal activity using the Botrytis cinerea assay described in the previous examples.

## sodium diisopropyl naphthalene sulfonate [ANS]
[1]; 3% ANS in WB compared with 3% Adjuvant 1
  relative amounts of iturins in the supernatant: about two to three times greater
[1]; increase from 3% to 5% of ANS, WB and BC
  lipopeptides in the supernatants, in words: corresponding increase of lipopeptides
Botrytis cinerea
  antifungal activity / disease control, in words: no observable disease control
